Active and inactive are the calls of the source. No cut-off for these calls is given here.
Legend:
[1] = target: Atypical chemokine receptor 3 (Homo sapiens) (UniProt P25106); experiment: Inhibition of CXCR7 interaction with SDF1alpha
[2] = test system: Human immunodeficiency virus 1; experiment: Antiviral activity against Human immunodeficiency virus 1 NL4.3 infected in human HeLa cells assessed as inhibition of viral replication after 48 hrs by MAGI assay; type: functional, organism-based; settings: Human immunodeficiency virus 1, NL4.3, HeLa
[3] = test system: Human immunodeficiency virus 1; experiment: Antiviral activity against Human immunodeficiency virus 1 3B infected in human HeLa cells assessed as inhibition of viral replication after 48 hrs by MAGI assay; type: functional, organism-based
[4] = test system: Human immunodeficiency virus 1; experiment: Antiviral activity against CCR5-tropic Human immunodeficiency virus 1 Ba-L infected in human HeLa cells assessed as inhibition of viral replication at 10 uM after 48 hrs by MAGI assay; type: functional, organism-based
[5] = target: C-X-C chemokine receptor type 4 (Homo sapiens, UniProt P61073); experiment: Displacement of [125I]-SDF-1alpha from CXCR4 receptor expressed in HEK293 cells after 1 hr by scintillation counting; type: cell-based
HeLa = experiment: Cytotoxicity against human HeLa cells at 10 uM by MAGI assay; type: cell-based

Chain of C-X-C chemokine receptor type 4 (P61073 whole entry): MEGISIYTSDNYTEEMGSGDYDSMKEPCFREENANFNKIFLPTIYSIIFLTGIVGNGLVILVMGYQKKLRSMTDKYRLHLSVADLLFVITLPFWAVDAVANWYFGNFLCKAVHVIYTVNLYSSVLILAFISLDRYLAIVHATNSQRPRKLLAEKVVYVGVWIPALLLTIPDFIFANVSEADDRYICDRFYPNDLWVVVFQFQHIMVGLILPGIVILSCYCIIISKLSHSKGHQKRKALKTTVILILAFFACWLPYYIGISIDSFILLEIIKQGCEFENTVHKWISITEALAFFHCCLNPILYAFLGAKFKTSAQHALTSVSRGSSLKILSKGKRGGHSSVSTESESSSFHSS
Chain of Atypical chemokine receptor 3 (Homo sapiens) (P25106 whole entry): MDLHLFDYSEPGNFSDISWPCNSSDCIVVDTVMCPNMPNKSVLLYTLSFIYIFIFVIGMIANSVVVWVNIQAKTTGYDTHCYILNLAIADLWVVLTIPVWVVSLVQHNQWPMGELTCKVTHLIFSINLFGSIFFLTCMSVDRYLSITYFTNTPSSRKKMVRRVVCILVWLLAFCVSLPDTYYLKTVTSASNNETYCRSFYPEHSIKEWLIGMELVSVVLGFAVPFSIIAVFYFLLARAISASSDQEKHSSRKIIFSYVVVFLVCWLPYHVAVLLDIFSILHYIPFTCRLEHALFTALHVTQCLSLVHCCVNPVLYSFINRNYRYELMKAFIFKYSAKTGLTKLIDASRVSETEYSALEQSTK

For `N=C(N)NCCC[C@@H]1NC(=O)[C@@H](Cc2ccc(O)cc2)NC(=O)CNC(=O)[C@H](Cc2ccc3ccccc3c2)NC(=O)[C@H](CCCNC(=N)N)NC1=N`, the inhibition [1] was “inactive”, the EC50 [2] was 1.9 nM and the EC50 [3] was 1.2 nM. The Activity [4] was “inactive”.
For `NC(N)=NCCC[C@@H]1NC(=O)[C@@H](Cc2ccc(O)cc2)NC(=O)CNC(=O)[C@H](Cc2ccc3ccccc3c2)N=C(N)[C@H](CCCN=C(N)N)NC1=O`, the IC50 [5] was 11 nM and the Activity (HeLa) was “Non-toxic”.
With `CN1C(=O)[C@@H](Cc2ccc(O)cc2)NC(=O)CNC(=O)[C@H](Cc2ccc3ccccc3c2)NC(=O)[C@H](CCCNC(=N)N)NC(=O)[C@H]1CCCNC(=N)N` the EC50 [2] was 7.6 nM, the EC50 [3] was 7.6 nM and the Activity [4] was “inactive”.
With `N=C(N)NCCC[C@@H]1NC(=O)[C@H](CCCNC(=N)N)NC(=O)[C@@H](Cc2ccc(O)cc2)NC(=O)CNC(=O)[C@H](Cc2ccc3ccccc3c2)NC1=N` the inhibition [1] was “inactive”, the EC50 [2] was 4.4 nM and the EC50 [3] was 6.3 nM. The Activity [4] was “inactive”.
In the case of `N=C(N)NCCC[C@@H]1NC(=N)[C@@H](Cc2ccc(O)cc2)NC(=O)CNC(=O)[C@H](Cc2ccc3ccccc3c2)NC(=O)[C@H](CCCNC(=N)N)NC1=O`, the inhibition [1] is reported as “inactive”, the EC50 [2] is reported as 300 nM and the EC50 [3] is reported as 258 nM. The Activity [4] was “inactive”.
For `N=C(N)NCCC[C@@H]1NC(=O)[C@H](CCCNC(=N)N)NC(=O)[C@@H](Cc2ccc(O)cc2)NC(=N)CNC(=O)[C@H](Cc2ccc3ccccc3c2)NC1=O`, the inhibition [1] was “inactive”, the EC50 [2] was 1.3 nM and the EC50 [3] was 0.61 nM. For the same compound, the Activity [4] was “inactive”.
In the case of `N=C(N)NCCC[C@@H]1NC(=O)[C@H](CCCNC(=N)N)NC(=O)[C@@H](Cc2ccc(O)cc2)NC(=O)CNC(=O)[C@H](Cc2ccc3ccccc3c2)NC1=O`, the EC50 [2] is reported as 21 nM, the EC50 [3] is reported as 21 nM and the Activity [4] is reported as “inactive”.
In the case of `NC(N)=NCCC[C@@H]1NC(=O)[C@H](CCCN=C(N)N)NC(=O)[C@@H](Cc2ccc(O)cc2)N=C(N)CNC(=O)[C@H](Cc2ccc3ccccc3c2)NC1=O`, the IC50 [5] is reported as 9.4 nM and the Activity (HeLa) is reported as “Non-toxic”.
`N=C(N)NCCC[C@@H]1NC(=N)[C@H](Cc2ccc(O)cc2)NC(=O)CNC(=O)[C@H](Cc2ccc3ccccc3c2)NC(=O)[C@H](CCCNC(=N)N)NC1=O` was tested, and the inhibition [1] was “inactive”, the EC50 [2] was 248 nM and the EC50 [3] was 238 nM. For the same compound, the Activity [4] was “inactive”.
For `NC(N)=NCCC[C@@H]1N=C(N)[C@H](Cc2ccc(O)cc2)NC(=O)CNC(=O)[C@H](Cc2ccc3ccccc3c2)NC(=O)[C@H](CCCN=C(N)N)NC1=O`, the IC50 [5] was 334 nM and the Activity (HeLa) was “Non-toxic”.
Work on `CN1C(=O)[C@@H](Cc2ccc(O)cc2)NC(=O)CNC(=O)[C@H](Cc2ccc3ccccc3c2)NC(=O)[C@H](CCCN=C(N)N)NC(=O)[C@H]1CCCN=C(N)N` yielded an IC50 [5] of 37 nM.
With `N=C(N)NCCC[C@@H]1NC(=O)[C@H](CCCNC(=N)N)NC(=O)[C@@H](Cc2ccc(O)cc2)NC(=O)CNC(=N)[C@@H](Cc2ccc3ccccc3c2)NC1=O` the inhibition [1] was “inactive”, the EC50 [2] was 2.2 nM and the EC50 [3] was 2 nM. For the same compound, the Activity [4] was “inactive”.
For `NC(N)=NCCC[C@@H]1N=C(N)[C@@H](Cc2ccc(O)cc2)NC(=O)CNC(=O)[C@H](Cc2ccc3ccccc3c2)NC(=O)[C@H](CCCN=C(N)N)NC1=O`, the IC50 [5] was 679 nM and the Activity (HeLa) was “Non-toxic”.
For `NC(N)=NCCC[C@@H]1NC(=O)[C@H](CCCN=C(N)N)NC(=O)[C@@H](Cc2ccc(O)cc2)NC(=O)CN=C(N)[C@@H](Cc2ccc3ccccc3c2)NC1=O`, the IC50 [5] was 4.9 nM and the Activity (HeLa) was “Non-toxic”.
With `N=C(N)NCCC[C@@H]1NC(=O)[C@H](CCCNC(=N)N)NC(=O)[C@@H](Cc2ccc(O)cc2)NC(=O)CNC(=N)[C@H](Cc2ccc3ccccc3c2)NC1=O` the IC50 [5] was 4.2 nM, the inhibition [1] was “inactive” and the EC50 [2] was 1.4 nM. The EC50 [3] was 1 nM, the Activity [4] was “inactive” and the Activity (HeLa) was “Non-toxic”.
For `NC(N)=NCCC[C@@H]1N=C(N)[C@H](CCCN=C(N)N)NC(=O)[C@@H](Cc2ccc(O)cc2)NC(=O)CNC(=O)[C@H](Cc2ccc3ccccc3c2)NC1=O`, the IC50 [5] was 16 nM and the Activity (HeLa) was “Non-toxic”.
